{"source": "patent EP0366632A1", "about": "“Alternative energy substrates” (priority 1988, dated 1990)", "key": {"[1]": {"experiment": "Cold storage of fat emulsion (Intralipid) with ester admixture: visual inspection, pH, mean particle size", "assay_type": "physicochemical", "conditions": "for emulsion quality (oil droplets, creaming, oil separation), daily inspection: Example 5: mother concentrate in Intralipid 10%; for emulsion quality (oil droplets, creaming, oil separation), daily inspection / emulsion stability, daily visual inspection: +5°C; for emulsion quality (oil droplets, creaming, oil separation), daily inspection / emulsion quality, daily visual inspection / emulsion stability, daily visual inspection: 5 days; for emulsion quality, daily visual inspection: 5°C", "description": "A so-called mother concentrate was prepared by dissolving 6 g of egg-yolk phospholipids in 40 g of 4-methyl-3-oxo-pentanoic acid ethyl ester at +60°C, while stirring. 34 g of 99% ethyl alcohol were then added to the solution, whereafter the solution was cooled to room temperature and dispensed into 20 ml glass flasks. Nitrogen gas was then bubbled through the liquid and the flasks then stoppered and capsuled. The bottles were then autoclaved at +120°C and at 118 kPa for 20 minutes. A 10% fat emulsion for parenteral nutrient administration (Intralipid^R retailed by KabiVitrum AB, Stockholm) was added to the preparation under strict asceptic conditions, to a 4-methyl-3-oxo-pentanoic acid ethyl ester concentration of 0.2, 1 and 3% respectively. The emulsion was shaken for 5 minutes in a shaking machine and then placed in a cold environment (+5°C). The emulsion was thereafter observed over a 5 day period, wherewith a daily inspection was carried out to assess the formation of oil droplets, creaming or oil separation. The assessment was made in comparison with a known emulsion for parenteral use (Intralipid^R 10%). […] Subsequent to 5 days storage, an analysis was made of the pH and mean particle size in a Coulter nanosizer. The following values were obtained:\n(§1) A so-called mother concentrate produced by dissolving 6 g egg-yolk phospholipids in 40 g of 4-methyl-3-oxo-pentanoic acid-ethyl ester at +60°C, while stirring the system. 34 g of 99% ethyl alcohol were then added to the solution, whereafter the solution was cooled to room temperature and dispensed into 20 ml glass flasks. Nitrogen gas was perculated through the contents of the flasks, and the flasks subsequently stoppered and fitted with capsules. The flasks were then autoclaved at 120°C and 118 kPa over a period of 20 minutes. This preparation was added to a 20% fat emulsion (Intralipid^R) under strict aseptic conditions, such that the concentation of 4-methyl-3-oxo-pentanoic acid ethyl ester was 0.2 and 1 and 3% respectively. The emulsion was shaken for 5 minutes in a shaker and then placed in a cold environment (5°C). The emulsion was inspected over a period of 5 calender days, wherewith a visual inspection was carried out daily in order to ascertain the occurrence of any oil droplets that may form, creaming or oil separation. The assay was effected by comparison with a known emulsion for parenteral use (Intralipid^R 20%). […] The pH of the emulsion was measured after a 5 day storage period. The mean particle size was measured in a Coulter^R nanosizer. The following values were obtained:\nas §1, with “prepara tion” for “preparation”, “10%” for “20%”, “10%).” for “20%).”, “obtained: […]” for “obtained:”"}, "[2]": {"set-up": "species or system rabbits", "conditions": "rabbit, in vivo", "description": "Two rabbits weighing between 3.0-3.5 kg were infused intravenously (10 ml/kg body weight) with an emulsion containing 50 mg/ml of 4-methyl-3-oxo-pentanoic acid ethyl ester over a period of 5 minutes. Each rabbit received a dosage of 1.5-1.8 g over a 5 minute period. The emulsion was prepared aseptically, by emusifying sterile-filtered ester with a sterilized dispersion of egg-yolk phospholipids.\nThree rabbits weighing 3.0-3.3 kg were infused intravenously (10 ml/kg body weight) with an emulsion containing 30 mg/ml of 4-methyl-3-oxo-pentanoic acid ethyl ester over a period of from 4 to 7 minutes. Each rabbit received a dosage of 0.9-1.05 g. The emulsion was prepared aseptically, by emulsifying sterile-filtered ester with a sterilized dispersion of egg-yolk phospholipids. […] The third rabbit remained normal during the whole of the infusion period. The two unconscious rabbits awakened about 2 minutes after completion of the infusion, and thereafter acted quite normally."}, "Energy density": {"experiment": "Energy density", "assay_type": "physicochemical"}, "[3]": {"conditions": "Example 5: Intralipid 10%, 0.2% admix, after 5 days storage"}, "[4]": {"conditions": "Example 5: Intralipid 10%, 1% admix, after 5 days storage"}, "[5]": {"conditions": "Example 5: Intralipid 10%, 3% admix, after 5 days storage"}, "[6]": {"conditions": "Example 30: Intralipid 20%, 0.2% admix"}, "[7]": {"conditions": "Example 30: Intralipid 20%, 1% admix"}, "[8]": {"conditions": "Example 30: Intralipid 20%, 3% admix"}, "[9]": {"conditions": "Example 31: Intralipid 10%, 0.2% admix"}, "[10]": {"conditions": "Example 31: Intralipid 10%, 1% admix"}, "[11]": {"conditions": "Example 31: Intralipid 10%, 3% admix"}, "[12]": {"conditions": "Example 31: Intralipid 10%, 5% admix"}}, "note": "“And” between values parts separate entries of the source, which are not always exact repeats. Equal values may be shown once. “Also recorded” adds a separate entry of the source."}
{"compound": "CCOC(=O)CC(=O)C(C)C", "note": "[4-methyl-3-oxo-pentanoic acid ethyl ester]", "values": [{"measurement": "Mean particle size (single readings, Coulter nanosizer)", "setting": "[1]; [3]", "value": "258 and 264 and 267 and 250"}, {"measurement": "Mean particle size, X", "setting": "[1]; [3]", "value": 261}, {"measurement": "pH", "setting": "[1]; [3]", "value": 7.2}, {"measurement": "Mean particle size (single readings, Coulter nanosizer)", "setting": "[1]; [4]", "value": "245 and 253 and 250 and 235 and 242"}, {"measurement": "Mean particle size, X", "setting": "[1]; [4]", "value": 246}, {"measurement": "pH", "setting": "[1]; [4]", "value": 7.0}, {"measurement": "Mean particle size (single readings, Coulter nanosizer)", "setting": "[1]; [5]", "value": "264 and 258 and 248 and 250"}, {"measurement": "Mean particle size, X", "setting": "[1]; [5]", "value": 258}, {"measurement": "pH", "setting": "[1]; [5]", "value": 6.8}, {"measurement": "emulsion quality (oil droplets, creaming, oil separation), daily inspection", "setting": "[1]; 1% addition", "value": "had no affect on the quality"}, {"measurement": "emulsion quality (oil droplets, creaming, oil separation), daily inspection", "setting": "[1]; 3% addition", "value": "fully acceptable, but deteriorated slowly during day 4 and 5"}, {"measurement": "Mean particle size (single readings, Coulter nanosizer)", "setting": "[1]; [6]", "value": "325 and 316 and 320 and 327"}, {"measurement": "Mean particle size, X", "setting": "[1]; [6]", "value": 323}, {"measurement": "pH", "setting": "[1]; Example 30: Intralipid 20%, 0.2% admix, after 5 day storage", "value": 7.3}, {"measurement": "Mean particle size (single readings, Coulter nanosizer)", "setting": "[1]; [7]", "value": "323 and 327 and 329 and 319 and 336"}, {"measurement": "Mean particle size, X", "setting": "[1]; [7]", "value": 326}, {"measurement": "pH", "setting": "[1]; Example 30: Intralipid 20%, 1% admix, after 5 day storage", "value": 6.9}, {"measurement": "Mean particle size (single readings, Coulter nanosizer)", "setting": "[1]; [8]", "value": "322 and 319 and 320 and 333"}, {"measurement": "Mean particle size, X", "setting": "[1]; [8]", "value": 323}, {"measurement": "pH", "setting": "[1]; Example 30: Intralipid 20%, 3% admix, after 5 day storage", "value": 6.5}, {"measurement": "emulsion quality, daily visual inspection", "setting": "[1]; Example 30: mother concentrate in Intralipid 20%, 0.2% addition", "value": "No change in quality"}, {"measurement": "emulsion quality, daily visual inspection", "setting": "[1]; Example 30: mother concentrate in Intralipid 20%, 1% addition", "value": "No change in quality"}, {"measurement": "emulsion quality, daily visual inspection", "setting": "[1]; Example 30: mother concentrate in Intralipid 20%, 3-percent mixture", "value": "fully acceptable over the first 3 days"}, {"measurement": "Mean particle size (single readings, Coulter nanosizer)", "setting": "[1]; [9]", "value": "241 and 239 and 246"}, {"measurement": "Mean particle size, X", "setting": "[1]; [9]", "value": 241}, {"measurement": "pH", "setting": "[1]; Example 31: Intralipid 10%, 0.2% admix, after 5 day storage", "value": 7.3}, {"measurement": "Mean particle size (single readings, Coulter nanosizer)", "setting": "[1]; [10]", "value": "244 and 249 and 246 and 251"}, {"measurement": "Mean particle size, X", "setting": "[1]; [10]", "value": 247}, {"measurement": "pH", "setting": "[1]; Example 31: Intralipid 10%, 1% admix, after 5 day storage", "value": 6.9}, {"measurement": "Mean particle size (single readings, Coulter nanosizer)", "setting": "[1]; [11]", "value": "249 and 246 and 240 and 236 and 243"}, {"measurement": "Mean particle size, X", "setting": "[1]; [11]", "value": 243}, {"measurement": "pH", "setting": "[1]; Example 31: Intralipid 10%, 3% admix, after 5 day storage", "value": 6.7}, {"measurement": "Mean particle size (single readings, Coulter nanosizer)", "setting": "[1]; [12]", "value": "244 and 252 and 254"}, {"measurement": "Mean particle size, X", "setting": "[1]; [12]", "value": 251}, {"measurement": "pH", "setting": "[1]; Example 31: Intralipid 10%, 5% admix, after 5 day storage", "value": 6.7}, {"measurement": "emulsion quality, daily visual inspection", "setting": "[1]; Example 31: mother concentrate in Intralipid 10%, 0.2% addition", "value": "No change in quality"}, {"measurement": "emulsion quality, daily visual inspection", "setting": "[1]; Example 31: mother concentrate in Intralipid 10%, 1% addition", "value": "No change in quality"}, {"measurement": "emulsion quality, daily visual inspection", "setting": "[1]; Example 31: mother concentrate in Intralipid 10%, 3% addition", "value": "No change in quality; also recorded: fully acceptable over the first 3 days"}, {"measurement": "pH", "setting": "[1]; Example 34: 20 percent fat emulsion, 5% emulsion, end of 5-day period (reference emulsion pH=7.9)", "value": 5.0}, {"measurement": "emulsion stability, daily visual inspection", "setting": "[1]; Example 34: pure ester in 10% fat emulsion (Intralipid), 0.2%", "value": "stable over the whole of the test period"}, {"measurement": "emulsion stability, daily visual inspection", "setting": "[1]; Example 34: pure ester in 10% fat emulsion, 1%", "value": "stable over the whole of the test period"}, {"measurement": "emulsion stability, daily visual inspection", "setting": "[1]; Example 34: pure ester in 10% fat emulsion, 3%", "value": "stable over the whole of the test period"}, {"measurement": "emulsion stability, daily visual inspection", "setting": "[1]; Example 34: pure ester in 10% fat emulsion, 5%", "value": "stable over the whole of the test period; also recorded: stable over the first 2 days"}, {"measurement": "emulsion stability, daily visual inspection", "setting": "[1]; Example 34: pure ester in 20 percent fat emulsion, 1% admixture", "value": "remained stable over the whole of the test period"}, {"measurement": "emulsion stability, daily visual inspection", "setting": "[1]; Example 34: pure ester in 20 percent fat emulsion, 5% admixture", "value": "remained stable for 2 days"}, {"measurement": "time after completion of the infusion until awakening", "setting": "[2]", "value": "about 2 minutes"}, {"measurement": "time after completion of the infusion until consciousness regained", "setting": "[2]", "value": "about 2 minutes"}, {"measurement": "energy density", "setting": "Energy density", "value": 27.94, "unit": "kJ/g"}]}
